The values below come from paper PMC4434572, “Identification of novel drugs to target dormant micrometastases” (BMC Cancer, 2015).

One data set deals with U251 (glioblastoma). As to the kind of experiment: Proliferation EC50 on Matrigel vs SISgel. The class given is cell-based.
A further data set relates to PC-3 (prostate). The data set can be described thus: Proliferation EC50 on SISgel vs monolayer. The class given is cell-based. Particulars: n = 6-8. An excerpt: The libraries were obtained from the NCI (Diversity Library I) comprised of 2,918 compounds and a 10,000 compound diversity library from ChemBridge, Inc. (DiverSet-EXP). The NCI library is no longer available in the form used here, but how it was constructed is described (http://dtp.nci.nih.gov/branches/dscb/diversity_explanation.html). The ChemBridge library is a subset (Set Code NM1024) of the full 50,000 compound library (http://www.chembridge.com/screening_libraries/diversity_libraries/). Compounds were diluted to 100 μM before use. SISgel was prepared as described previously from powdered porcine small intestine submucosa obtained from Cook Biotech (W. Lafayette, IN). It is a natural product that is used extensively in tissue engineering as a bioscaffold. J82 bladder cancer cells and other cell lines were obtained from the ATCC (Bethesda, MD). The basic principle is that cells grown on any ECM are, in general, expected to show higher resistance to anticancer compounds than when grown on plastic. Therefore, compounds that show a higher activity toward cancer cells on a normal ECM than on a plastic surface would be candidates to target suppressed, micrometastatic cells. Efficacy in vitro was assessed by plating 30,000 cells in 50 μL of high glucose DMEM with penicillin-streptomycin and 10 % fetal calf serum on SISgel in a 96-well plate containing 50 μL of gelled SISgel per well. Cells were allowed to attach and assume the SISgel phenotype for 48 h. A matching plate without SISgel was prepared 24 h later by pipetting 3,000 cells in 100 μL of high glucose DMEM with penicillin-streptomycin and 10 % fetal calf serum into each well of 96 well plate. The cells were allowed to attach and grow for 24 h. These numbers of cells gave approximately equal replication rates at the time drug was added for cells grown on the plastic surface or SISgel as determined by the fraction of S-phase cells identified by flow cytometry. The cells were exposed to drug in fresh medium for 48 h, at which time the cell number was determined using the CFDA-AM cellular esterase proliferation assay (cat. #C1354, Life Technologies). For screening the results are reported as the ratio of cell count of cells on the plastic surface to the cell count on SISgel. An initial difference of 1.5 fold identified potential hits. All potential hits were confirmed in triplicate. Those compounds that replicated were confirmed by a full dose–response study yielding an EC50 using five wells per drug concentration. Data were analyzed using nonlinear regression to a sigmoid curve with Prism 4 (GraphPad Software, Inc., LaJolla, CA). Potential hits that were confirmed by dose–response using J82 were also tested with MDA-MB-435 breast cancer, PC-3 metastatic prostate cancer, Capan1 pancreatic cancer and the J82 bladder cancer cell lines.

The test system of the next data set is DU145 (prostate). As to the kind of experiment: Proliferation EC50 on Matrigel vs SISgel. The class given is cell-based.
In another data set the test system is MDA-MB-435-GFP cells. The data set can be described thus: Flank xenograft model of ECM-suppressed cells co-injected with SISgel. The class given is in vivo, nu/nu mice. The settings on record: 45 mg/kg i.p. three times weekly for 3 weeks; 4 weeks after implantation. The protocol: The efficacy of DT320 was assessed using a flank xenograft model of ECM-suppressed cancer cells that we developed, as well as an orthotopic model of “triple-negative” breast cancer. All animal protocols were reviewed and approved by the OUHSC Institutional Animal Care and Use Committee according to criteria established by the NIH Office of Laboratory Animal Welfare, and animals were housed 5 per cage with enrichment (tubes) and wood chips in the AALAC-accredited OUHSC Animal Facility with a 12 h light/dark cycle. Animals had access to water and food ad libatum. Animals were monitored daily by trained facility personnel. In the flank model, GFP-labeled cells were co-injected with SISgel, which produces a suppressed, normalized phenotype that persists after the SISgel is resorbed, but which can re-emerge into active tumor growth after 30–60 days. Animals were all female nu/nu mice (NCI National Laboratory Frederick/Charles River animal production program). An optimized number of 5 × 10^5 GFP-labeled MDA-MB-435 cells in 100 μL DMEM medium, without additives, were mixed with 100 μL of SISgel and were kept on ice until injection to prevent polymerization of the SISgel. […] The cells injected into the flanks remained as a non-growing spot, as assessed by fluorometry of the spots and the lack of mitoses seen in tissue sections, for about 3–5 weeks before some began resuming malignant growth. […]

Another data set is described as follows: in vivo. The settings on record: mouse.
Where [1] appears, read: PC-3 monolayer, read-out: EC50 Monolayer.
Setting [2] is: PC-3 on SISgel, read-out: EC50 SISgel.

“And” between values parts separate entries of the source, which are not always exact repeats. Identical values can stand only once. Like-named read-outs stand apart in the source and are kept apart here.

Usually EC50 stands for the concentration giving half of the maximal effect.

Take `O=S(=O)([O-])c1cc(O)c2c(O)c(N=Nc3cccc4ccccc34)c(S(=O)(=O)[O-])cc2c1.[Na+].[Na+]` [DT320, 4,5-Dihydroxy-3-(1-naphthalenylazo)-2,7-naphthalenedisulfonic acid disodium salt]: the Ratio in the data set with U251 (glioblastoma) (Matrigel/SISgel EC50, U251) was 1.5; in the data set with DU145 (prostate) (Matrigel/SISgel EC50, DU145), 4.0. The concentration giving a half-maximal response (EC50) in the data set on U251 (glioblastoma) (U251 on Matrigel, read-out: EC50 Matrigel) amounted to 95 µM; with U251 (glioblastoma) (U251 on SISgel, read-out: EC50 SISgel), 64.6 µM; in the data set with PC-3 (prostate) (setting [1]), 41.5 ± 4.1 µM; in the data set on PC-3 (prostate) (setting [2]), 19.7 ± 2 µM; in the data set with DU145 (prostate) (DU145 on Matrigel, read-out: EC50 Matrigel), 183 µM; with DU145 (prostate) (DU145 on SISgel, read-out: EC50 SISgel) it was 45.7 µM. Besides, in the data set on MDA-MB-435-GFP cells, the “flank xenografts in which ECM-suppressed cells were extirpated / spots disappeared” value is “six of eight and 6 of 8”.

With `COc1cccc2c1C(=O)c1c(O)c3c(c(O)c1C2=O)C[C@@](O)(C(=O)CO)C[C@@H]3O[C@H]1C[C@H](N)[C@H](O)[C@H](C)O1` [Doxorubicin, reference compound], the MTD in “in vivo” (BALB/c, ip) is 1 mg/kg; in “in vivo”, 1 mg/kg. Moreover, the 50% effective concentration (EC50) in the data set with PC-3 (prostate) (setting [1]) was determined as 104 ± 6.1 µM; in the data set on PC-3 (prostate) (setting [2]) it was 102 ± 7 µM.
